Results on two compounds are retold here after article PMC9400797 (Cell, 2022).

Assay [1] deals with T1, cannabinoid receptor 1 (CB1) (Homo sapiens, UniProt P21554). In words: GTPase-Glo GTP turnover assay with purified CB1 and Gi1, […] ligand. The assay is classed as biochemical.
Target sequence in this assay (P21554 whole entry): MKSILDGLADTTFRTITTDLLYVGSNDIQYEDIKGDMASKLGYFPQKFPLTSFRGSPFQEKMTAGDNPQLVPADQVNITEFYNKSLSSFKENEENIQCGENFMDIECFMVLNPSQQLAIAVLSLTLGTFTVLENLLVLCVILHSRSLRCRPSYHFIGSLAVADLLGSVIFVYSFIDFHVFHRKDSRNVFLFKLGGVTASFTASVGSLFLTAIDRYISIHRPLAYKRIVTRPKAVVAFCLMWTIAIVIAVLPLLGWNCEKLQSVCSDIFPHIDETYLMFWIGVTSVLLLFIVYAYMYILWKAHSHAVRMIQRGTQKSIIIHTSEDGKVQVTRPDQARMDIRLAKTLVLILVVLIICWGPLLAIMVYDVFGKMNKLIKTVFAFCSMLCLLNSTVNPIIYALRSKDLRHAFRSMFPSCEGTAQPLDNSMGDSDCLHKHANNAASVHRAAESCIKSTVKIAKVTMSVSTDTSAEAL
Target sequence in this assay (P63096 2-354 partner): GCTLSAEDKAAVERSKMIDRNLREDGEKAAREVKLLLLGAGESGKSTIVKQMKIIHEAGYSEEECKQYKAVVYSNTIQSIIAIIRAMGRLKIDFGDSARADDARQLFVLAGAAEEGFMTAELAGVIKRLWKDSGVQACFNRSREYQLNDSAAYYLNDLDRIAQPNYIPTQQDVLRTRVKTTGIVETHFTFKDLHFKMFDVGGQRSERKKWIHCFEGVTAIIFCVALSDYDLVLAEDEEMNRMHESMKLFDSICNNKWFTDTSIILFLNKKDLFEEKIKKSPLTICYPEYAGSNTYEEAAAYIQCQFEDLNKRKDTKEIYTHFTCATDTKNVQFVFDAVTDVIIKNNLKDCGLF
Assay [2] addresses T1, cannabinoid receptor 1 (CB1). In words: CB1 radioligand binding assay.
Target sequence in this assay (P21554 whole entry): as the sequence (P21554 whole entry) above

Regarding `C[C@H](NC(=O)C(C)(C)Oc1ccc(C(F)(F)F)cn1)[C@@H](Cc1ccc(Cl)cc1)c1cccc(C#N)c1` [taranabant], the “GTPase-Glo GTP turnover assay with purified CB1 and Gi1, 20 uM ligand” value in assay [1] is “GTPase-Glo assay reveals rimonabant and taranabant to decrease GTP turnover compared with Apo”.

The IC50 is the concentration that gives 50% inhibition. Low values mean higher potency, high ones lower potency. With BODIPY517/547-genistein, the concentration for half-maximal inhibition (IC50) in assay [2] is 375 nM.
